Test results from patent US7112574B2, “C2,8-disubstituted adenosine derivatives and their different uses” (priority 2001, dated 2006).
Like-named read-outs stand apart in the source and are kept apart here.

Columns and labels:
adenosine A1 receptor = target: T1, adenosine A1 receptor (Rattus norvegicus, UniProt P25099); assay: biochemical; conditions: for inhibition at 10 µM: read-out: % displacement at 10^-5 M, A1
T1 sequence (P25099 1-326): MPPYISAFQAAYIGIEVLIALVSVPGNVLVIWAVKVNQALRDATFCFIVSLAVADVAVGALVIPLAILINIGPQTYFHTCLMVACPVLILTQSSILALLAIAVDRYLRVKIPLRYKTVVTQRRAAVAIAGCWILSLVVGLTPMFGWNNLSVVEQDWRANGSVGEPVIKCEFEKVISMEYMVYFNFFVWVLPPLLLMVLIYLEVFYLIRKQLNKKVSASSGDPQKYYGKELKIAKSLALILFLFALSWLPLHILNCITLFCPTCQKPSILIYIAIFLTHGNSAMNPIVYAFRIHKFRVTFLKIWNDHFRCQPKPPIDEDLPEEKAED
Method: (§1) Incubations were carried out for 1 hr at 37° C. and were terminated by rapid filtration over Whatman GF/B filters, using a Brandell cell harvester (Brandell, Gaithersburg, Md.). Tubes were washed three times with 3 ml of buffer. Radioactivity was determined in a Beckman 5500B γ-counter. Nonspecific binding was determined in the presence of 10^−5 M R-PIA.
(§2) All compounds prepared were tested in radioligand binding assays to determine their affinities for the adenosine A1 receptor in rat brain cortex, the A2A receptor in rat striatum and the human A3 receptor as expressed in HEK 293 cells (Table 2, hereinafter). The Ki values were computed from the displacement curves obtained by nonlinear regression of the competition curves with the software package Prism (Graph Pad, San Diego, Calif.)
(§3) For the adenosine A1 receptor, the tritiated antagonist, [^3H]-1,3-dipropyl-8-cyclopentylxanthine ([^3H]DPCPX), and for the adenosine A2A receptor, the tritiated antagonist [^3H]ZM 241385 were used. Since radiolabeled antagonists are not commercially available for the adenosine A3 receptor, [125I]AB-MECA, an A3 receptor agonist, was used. Displacement experiments were performed in the absence of GTP.

adenosine A2A receptor = adenosine A2A receptor (Rattus norvegicus, UniProt P30543); assay: biochemical; conditions: for % displacement at 10^-5 M, A2A: [3H]ZM241385, rat striatal membranes, 10 μM, n=2, mean value; for A3/A2A: ratio of Ki A3 (human) to Ki A2A (rat)
Method: as §1, §2, §3

human A3 receptor = target: T2, human A3 receptor (Homo sapiens, UniProt P0DMS8); assay: Radioligand binding, displacement of [125I]AB-MECA from human A3 receptor expressed in HEK 293 cells; conditions: for % displacement at 10^-5 M, A3: 10 μM, n=2, mean value
T2 construct: expressed in transfected cells; host or cells: HEK 293
T2 sequence (P0DMS8 1-318): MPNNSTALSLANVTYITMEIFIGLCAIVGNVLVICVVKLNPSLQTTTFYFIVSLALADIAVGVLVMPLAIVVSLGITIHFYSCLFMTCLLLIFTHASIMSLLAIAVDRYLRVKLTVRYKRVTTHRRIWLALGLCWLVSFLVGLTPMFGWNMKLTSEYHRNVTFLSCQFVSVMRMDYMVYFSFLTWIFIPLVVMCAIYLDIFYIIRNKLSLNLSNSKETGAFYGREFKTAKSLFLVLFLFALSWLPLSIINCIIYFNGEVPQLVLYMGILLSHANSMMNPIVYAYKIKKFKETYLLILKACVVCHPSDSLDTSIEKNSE
Method: as §1, §2, §3

[1] = target: human adenosine A2A receptors (Homo sapiens, UniProt P29274); conditions: for agonist behaviour (intrinsic activity) at the adenosine A2A receptor: cAMP production compared to reference agonist CGS 21680, words
Method: CHO cells expressing the human adenosine A2A receptors were grown overnight as a monolayer in 24 wells tissue culture plates (400 μl/well; 2×10^5 cells/well). cAMP generation was performed in Dulbecco's Modified Eagles Medium (DMEM)/N-2-hydroxyethylpiperazin-N′-2-ethansulfonic acid HEPES) buffer (0.60 g HEPES/50 ml DMEM pH 7.4). To each well, washed three times with DMEM/HEPES buffer (250 μl), 100 μl DMEM/HEPES buffer, 100 μl adenosine deaminase (final concentration 5 IU/ml) and 100 μl of a mixture of rolipram and cilostamide (final concentration 50 μM each) were added. After incubation for 40 minutes at 37° C., 100 μL agonist was added. After 15 minutes at 37° C., the reaction was terminated by removing the medium and adding 200 μl 0.1 M HCl. Wells were stored at −20° C. until assay.
The amounts of cAMP were determined after a protocol with cAMP binding protein^12 with the following minor modifications. As a buffer was used 150 mM K2HPO4/10 mM EDTA/0.2% Bovine Serum Albumine (BSA) at pH 7.5. Samples (20 μl+30 μl 0.1 M HCl) were incubated for at least 2.5 hours at 0° C. before filtration over Whatman GF/B filters. […] Filters were counted in Packard Emulsifier Safe scintillation fluid (3.5 ml) after 24 hours of extraction.
All compounds prepared were also tested in a functional assay.

[2] = [125I]AB-MECA, human A3 receptor in HEK 293 cells

SMILES | inhibition at 10 µM (adenosine A1 receptor) | % displacement at 10^-5 M, A2A (adenosine A2A receptor) | Ki (human A3 receptor) | % cAMP production hA2A [1] | agonist behaviour (intrinsic activity) at the adenosine A2A receptor [1] | Ki (adenosine A2A receptor) | A3/A2A (adenosine A2A receptor) | melting point | % displacement at 10^-5 M, A3 (human A3 receptor; [2]) | Ki (adenosine A1 receptor) | Ki (human A3 receptor; [125I]AB-MECA, human A3 receptor in HEK 293 cells, ±SEM, n=3, read-out: Ki A3)
CCCCC#Cc1nc(N)c2nc(C#CCCCC)n([C@@H]3O[C@H](CO)[C@@H](O)[C@H]3O)c2n1 [Compound 22, 2,8-di-(1-hexynyl)adenosine] | 50.3% | 28.7% | 254 ± 34 nM | 99% (98–99) | full agonists | – | – | – | – | – | –
CCCC/C=C/c1nc(N)c2nc(NCCC)n([C@@H]3O[C@H](CO)[C@@H](O)[C@H]3O)c2n1 [Compound 19, 2-((E)-1-hexenyl)-8-propylaminoadenosine] | 49.5% | – | 14300 ± 2160 nM | 73% (70–76) | – | 678 ± 25 nM | 21.1 | 170 to 172 °C | – | – | –
CCCCNc1nc2c(N)nc(I)nc2n1[C@@H]1O[C@H](CO)[C@@H](O)[C@H]1O [Compound 10, 2-Iodo-8-butylaminoadenosine] | 28.2% | – | – | 28% (27–30) | – | 3110 ± 1650 nM | – | – | 43.1% | – | –
CCCC/C=C/c1nc(N)c2ncn([C@@H]3O[C@H](CO)[C@@H](O)[C@H]3O)c2n1 [Compound 4, 2-((E)-1-hexenyl)adenosine] | 53.1% | – | 73.5 ± 7.7 nM | 82% (78–86) | partial agonism | 26.2 ± 1.8 nM | 2.78 | – | – | – | –
CCCNc1nc2c(N)nc(I)nc2n1[C@@H]1O[C@H](CO)[C@@H](O)[C@H]1O [Compound 9, 2-Iodo-8-propylaminoadenosine] | 40.2% | 50.7% | 8670 ± 2000 nM | – | – | – | – | 160 to 162 °C | – | – | –
Nc1nc(I)nc2c1nc(Br)n2[C@@H]1O[C@H](CO)[C@@H](O)[C@H]1O [Compound 5, 2-iodo-8-bromoadenosine] | 21.6% | 43.1% | – | – | – | – | – | – | 6.2% | – | –
CCCC/C=C/c1nc(N)c2nc(NCCCC)n([C@@H]3O[C@H](CO)[C@@H](O)[C@H]3O)c2n1 [Compound 20, 2-((E)-1-hexenyl)-8-butylaminoadenosine] | – | – | – | 36% (33–40) | – | 580 ± 250 nM | – | – | 47.4% | 906 ± 264 nM | –
CCCCC#Cc1nc(N)c2ncn([C@@H]3O[C@H](CO)[C@@H](O)[C@H]3O)c2n1 [Compound 3, 2-(1-hexynyl)adenosine] | – | – | – | 61% (58–64) | partial agonism | – | – | – | – | – | 16.9 ± 4.1 nM
Nc1nc(I)nc2c1ncn2[C@@H]1O[C@H](CO)[C@@H](O)[C@H]1O [Compound 1, 2-Iodoadenosine] | 36.1% | – | – | 126% (118–134) | full agonist | – | – | – | – | – | –
CCCCC#Cc1nc(N)c2nc(NCCCC)n([C@@H]3O[C@H](CO)[C@@H](O)[C@H]3O)c2n1 [Compound 15, 2-(1-hexynyl)-8-butylaminoadenosine] | – | – | – | 72% (63–82) | – | 149 ± 29 nM | – | 182 to 184 °C | 64.3% | 539 ± 380 nM | –
Nc1nc(I)nc2c1nc(NCc1ccccc1)n2[C@@H]1O[C@H](CO)[C@@H](O)[C@H]1O [Compound 11, 2-iodo-8-benzylaminoadenosine] | 35.5% | 44.7% | – | 125% (92–157) | full agonists | – | – | – | 39.5% | – | –
Nc1nc(NCc2ccccc2)nc2c1nc(NCc1ccccc1)n2[C@@H]1O[C@H](CO)[C@@H](O)[C@H]1O [Compound 23, 2,8-di-benzylaminoadenosine] | 50.2% | 11.6% | – | 95% (90–100) | full agonists | – | – | – | 54.1% | – | –
CCCCC#Cc1nc(N)c2nc(NCC)n([C@@H]3O[C@H](CO)[C@@H](O)[C@H]3O)c2n1 [Compound 13, 2-(1-hexynyl)-8-ethylaminoadenosine] | 30.9% | – | 8830 ± 1230 nM | 134% (124–143) | full agonist | 253 ± 29 nM | 34.9 | – | – | – | –
CNc1nc2c(N)nc(I)nc2n1[C@@H]1O[C@H](CO)[C@@H](O)[C@H]1O [Compound 7, 2-Iodo-8-methylaminoadenosine] | 35.2% | 43.3% | 7310 ± 440 nM | 23% (20–25) | – | – | – | 162 to 164 °C | – | – | –
CCCC/C=C/c1nc(N)c2nc(NCc3ccccc3)n([C@@H]3O[C@H](CO)[C@@H](O)[C@H]3O)c2n1 [Compound 21, 2-((E)-1-hexenyl)-8-benzylaminoadenosine] | – | 26.3% | – | 73% (72–75) | – | – | – | 153 to 155 °C | 24.3% | 2110 ± 560 nM | –
CCCCC#Cc1nc(N)c2nc(NCc3ccccc3)n([C@@H]3O[C@H](CO)[C@@H](O)[C@H]3O)c2n1 [Compound 16, 2-(1-hexynyl)-8-Benzylaminoadenosine] | – | 35.4% | 7970 ± 610 nM | 83% (61–106) | full agonists | – | – | 141 to 143 °C | – | 756 ± 483 nM | –
CCCCC#Cc1nc(N)c2nc(NC)n([C@@H]3O[C@H](CO)[C@@H](O)[C@H]3O)c2n1 [Compound 12, 2-(1-Hexynyl)-8-methylaminoadenosine] | 31.6% | – | 5640 ± 780 nM | 85% (85–86) | – | 115 nM | 49.0 | – | – | – | –
